Results from US20240208954A1, “OXADIAZOLE COMPOUND, PREPARATION METHOD THEREFOR, PHARMACEUTICAL COMPOSITION AND USE THEREOF” (SHANGHAI INSTITUTE OF MATERIA MEDICA, CHINESE ACADEMY OF …, priority 2020, published 2024).
Entries after “also recorded” stand apart in the source; their conditions may differ.

How the values were obtained:
[1] = system: dextran sodium sulfate (DSS)-induced IBD model; assay: Pharmacological activity test in DSS-induced IBD model; type: in vivo, mice
Method: The mice were randomly divided into […]: normal control group (Control,n=5), model control group (Model,n=11), positive compound BAF312 group (0.3 mg/kg,n=10), low dose group (0.03 mg/kg,n=10), medium dose group (0.3 mg/kg,n=10), high dose group (3 mg/kg, n=10), and each group was administered by gavage in a volume of 5 mL/kg once a day. DSS with an average molecular weight of 36000˜50000 Da was dissolved in drinking water to make 2% DSS solution, and the mice in the modeling group were allowed to drink it freely for 6 days, while the drug administration treatments were carried out simultaneously. The body weight, fecal hardness and occult blood of mice in each group were observed every day, and the scores of each index were summed to obtain the disease activity index of each animal. After 6 days of completion of modeling and drug administration, the modeling reagents were withdrawn for a 1-day remission period, and the mice were sacrificed by dislocation after blood was taken via the posterior ophthalmic plexus. Colon tissue and spleen were measured for length or weighed, part of the colon was fixed in 4% paraformaldehyde, and all tissues and serum were stored at −80° C.

[2] = system: MCD-HFD induced NASH model; assay: Pharmacological activity test in MCD-HFD induced NASH model; type: in vivo, C57BL/6 mice
Method: Male C57BL/6 mice were fed with MCD-HFD diet to induce the NASH model, and 4 weeks after modeling, the mice were randomly divided into […]: normal diet control group (Control, n=9), model control group (Model, n=10), positive compound BAF312 group (0.3 mg/kg, n=10), low dose group (0.3 mg/kg, n=10), medium dose group (3 mg/kg, n=10), and high dose group (10 mg/kg, n=10), administered by gavage in a volume of 5 mL/kg once a day. The animals were monitored for food intake and body weight during administration; 4 weeks after administration, the mice were sacrificed by dislocation after blood was taken via the posterior ophthalmic plexus, livers and spleens were weighed, part the liver was fixed in 4% paraformaldehyde, and all tissues and serum were stored at −80° C.

[3] = high-dose group (10 mg/kg), gavage once a day, 4 weeks

For `CC(C)Oc1ccc(-c2nc(-c3ccc(CN4CC(C(=O)O)C4)c4ccccc34)no2)cc1C#N.Cl` [Compound A1, 1-((4-(5-(3-cyano-4-isopropoxyphenyl)-1,2,4-oxadiazol-3-yl)naphthalen-1-yl)methyl) azetidine-3-carboxylic acid hydrochloric acid], which “impaired crypt and inflammatory infiltration in colon sites” value ([1]; H&E-stained colon sections, high/medium doses (3/0.3 mg/kg)) is on record?
Its value is “effectively improve”.

What about the “overall effect in the IBD model” value ([1]; concluding statement) of the same compound?
The value was “significant anti-inflammatory as well as pathological ameliorating effects”.

What about the “weight of the spleen” value ([1]; high/medium/low doses) of the same compound?
Its value is “without affecting”.

And the “disease process (weight change, stool consistency, rectal bleeding, disease activity index)” value ([1]; high/medium/low doses (3/0.3/0.03 mg/kg), gavage once a day, to different degrees)?
The value was “effective in alleviating; also recorded: alleviated”.

And the “shorten of colon length” value ([1]; high/medium/low doses (3/0.3/0.03 mg/kg), to different degrees)?
Its value is “effective in alleviating”.

What about the “hepatic lipid accumulation as well as inflammatory infiltration” value ([2]; FIG. 10 legend: at high/medium/low doses) of the same compound?
The value was “alleviated”.

What about the “hepatic lipid accumulation and inflammatory infiltration” value ([2]; H&E-stained liver sections, high-dose (10 mg/kg)) of the same compound?
The value was “effective in alleviating”.

And the body weight ([2]; gavage once a day, 4 weeks)?
Its body weight is “without affecting”.

And the “TG accumulation in the liver” value ([2]; high-dose group (10 mg/kg))?
Its value is “significantly alleviating”.

And the “serum ALT levels” value [2, 3]?
Its value is “significantly reduced”.

And the “serum AST levels” value [2, 3]?
The value was “significantly reduced”.

What about the “expression levels of fibrosis-related genes (Asma, Tgfb, Col1a1)” value ([2]; high/medium-dose (10/3 mg/kg)) of the same compound?
Its value is “significantly downregulated; also recorded: downregulates”.

And the “hydroxyproline levels in the liver” value ([2]; high/medium-dose (10/3 mg/kg), to different degrees)?
The value was “effective in alleviating; also recorded: alleviated”.

What about the “mRNA expression of liver inflammation-related genes (Tnfa, Il1b, Nlrp3, Ccl2)” value ([2]; high/medium/low doses (10/3/0.3 mg/kg), to different degrees) of the same compound?
Its value is “significantly downregulated”.
